As usually defined, the pKa is the pH at which an ionisable group is half protonated. Lower therefore signals a group that gives up its proton readily.

Consider `Cc1ccccc1/C(=N\CCCN(C)C)c1ccccc1-c1ccccc1`, for which the pKa (basic group) was 9.25.
For the setting “basic group”, `CCNCl` came in with a pKa of 0.93.
For the setting “acidic group”, `O=C(O)[C@@H]1O[C@H](Oc2ccc(I)cc2)[C@@H](O)[C@H](O)[C@H]1O` displayed a pKa of 3.28.
Compound `CC(CN(C)C)[NH+](C)C` (stereo not given) came in with a pKa (basic group) of 5.4.
The compound `CC(=O)C(Cc1ccccc1)C(C)=O` came in with a pKa (acidic group) of 10.5.
Still for that read-out and setting: the result for `Oc1ccc2[nH]ncc2c1` reads 10.1.
Where the note is “basic group”, `Cc1cc([O-])nc([O-])[n+]1C` returned a pKa of 10.1.
Still for that read-out and setting: in the case of `CC(C)(C)NNC(C)(C)C` it was 8.31; in that of `Cc1ccc(Cl)cc1/C(=N/CCC[NH+](C)C)c1ccccc1`, 3.87.
Take `Cc1ccc(C2NCCS2)cc1` (stereo not given): the pKa (basic group) is 5.35.
With `CCCCC1CCCN1C` (stereo not given), the pKa (basic group) came to 10.
Turning to `CN(C)c1ccc(SC#N)cc1`, the pKa (basic group) came to 3.3.
In turn, `O=C(Cc1ccccc1)c1cc[n+](Cc2ccccc2)cc1` displayed a pKa (acidic group) of 8.8.
With `CCC(C)C(=O)CCN1CCOCC1` (stereo not given), the pKa (basic group) amounted to 7.07.
Same read-out and setting: in the case of `COc1ccc(-c2cnc(-c3ccc(C)cc3)o2)cc1` it was 1.26.
In turn, `O=C1CC[C@@H](C(=O)O)N1` had a pKa (acidic group) of 3.4.
Under “basic group”, `CCOc1ccc2c3c1O[C@H]1[C@@H](O)C=C[C@H]4[C@@H](C2)N(C)CC[C@@]341` registered a pKa of 8.03.
On to `CCN(CC)Cc1cc(C)ccc1O`, for which the pKa by setting is: (acidic group) 10.8; (basic group) 8.94.
On to `COc1ccc(C(=O)O)c(C)c1`, for which the pKa (acidic group) stood at 4.54.
With `COc1ccc(-c2cnc(-c3ccc([NH3+])cc3)o2)cc1`, under “basic group”, the pKa amounted to 0.27.
Take `O=C([O-])c1cccc([N+](=O)[O-])c1O`: the pKa (acidic group) amounted to 10.3.
As to `C[n+]1c2ccccc2cc2c(N)cccc21`, where the note is “acidic group”, the pKa is 10.
On to `Sc1cc[nH+]cc1`, for which the pKa (acidic group) stood at 1.43.
The compound `OC[C@@H]1O[C@H](n2cnc3ccccc32)[C@@H](O)[C@H](O)[C@H]1O` displayed a pKa (basic group) of 4.01.
The compound `COc1cnnc2ccccc12` came in with a pKa (basic group) of 3.21.
Where the note is “acidic group”, `Cc1n[nH]c2c1c(=O)n(C)c(=O)n2C` came in with a pKa of 9.83.
For `COc1ccccc1CCC(=O)O`, under “acidic group”, the pKa is 4.8.
In turn, `CCOC(=O)Cc1nc2ccccc2[nH]1` gave a pKa (acidic group) of 13.1 and a pKa (basic group) of 5.7.
Turning to `Cc1n[nH]c(C(=O)O)c1[N+](=O)[O-]`, where the note is “acidic group”, the pKa amounted to 2.26.
Compound `COc1cccc([O-])n1` registered a pKa (basic group) of 9.77.
For the setting “basic group”, `CN1CCN(C(c2ccccc2)c2ccc(Cl)cc2)CC1` (stereo not given) yielded a pKa of 7.81.
For the compound `NCCCC[NH3+]`, where the note is “basic group”, the pKa was determined as 9.36.
`CCN(CC)CC(=O)NC1CCCCC1` showed a pKa (basic group) of 8.21.
`COC(=O)C([NH3+])Cc1c[nH]cn1` (stereo not given) registered a pKa (basic group) of 5.41.
Under “acidic group”, `CCOc1ccccc1/C=C\C(=O)O` displayed a pKa of 4.35.
`[O-]c1cccc2c1-c1cccc(O)c1-2` yielded a pKa (acidic group) of 9.97.
The compound `Nc1ccncc1C(=O)[O-]` came in with a pKa (basic group) of 9.1.
The compound `O=CNO` displayed a pKa (acidic group) of 8.77.
Take `CN(C(=O)c1ccccc1)c1ccncc1`: for the setting “basic group”, the pKa came out at 4.68.
`CC(=O)[n+]1ccc(N)cc1`: the pKa (acidic group) turned out to be 9.15.
Same read-out and setting: in the case of `O/N=C/c1ccc(O)cc1` it was 8.78.
In the case of `C#CC(C)Nc1ccccc1` (stereo not given), the pKa (basic group) was 3.25.
`Cc1ccc(C(=O)C(=O)O)cc1C` showed a pKa (acidic group) of 1.36.
As to `CCNC[Si](C)(C)C`, the pKa (basic group) came to 11.1.
`CC1C(=O)CC(C)(C)CC1=O` came in with a pKa (acidic group) of 5.6.
In turn, `[NH3+]CCCC(=O)O` had a pKa (acidic group) of 4.06.
In turn, `NCCC(=O)N[C@@H](Cc1cnc[nH]1)C(=O)[O-]` displayed a pKa (basic group) of 9.35.
With `CC(C)C[C@H](N)C(=O)[O-]`, the pKa (basic group) amounted to 9.62.
Consider `Cc1cc(O)c(C(C)C)cc1Nc1ccc(O)cc1`, for which, where the note is “acidic group”, the pKa is 9.85.
On the same count and under the same terms, in the case of `COC(=O)C[C@@H]1[C@@H](C(=O)O)[NH2+]C[C@H]1C(C)O` (stereo not given in full) it was 2.4.
Take `CN(C)c1ccc2cc3c(ccc4ccccc43)nc2c1`: under “basic group”, the pKa is 7.31.
For the setting “basic group”, `C#CCN1CCN(C(=O)OCC)CC1` returned a pKa of 5.44.
The compound `CCn1cncn1` registered a pKa (basic group) of 2.39.
Turning to `NS(=O)(=O)c1cc2c(cc1Cl)N=CNS2(=O)=O`, the pKa (acidic group) turned out to be 6.7.
Compound `Nc1nc([S-])c2ncn([C@H]3O[C@@H](CO)[C@H](O)[C@@H]3O)c2n1` yielded a pKa (basic group) of 8.34.
On the same count and under the same terms, the result for `CN(C)CCC/N=C(\c1ccccc1)c1ccccc1Cl` reads 9.
The compound `O=C1CS(=O)(=O)NC(=O)N1` yielded a pKa (acidic group) of 2.7.
As for `CC(=N\O)/C(C)=N/O`, the pKa (acidic group) is 10.6.
For `N#CCCNN`, the pKa (basic group) was determined as 5.91.
The same measure, in the same setting: the result for `CCOC(=O)CCCc1ccccn1` reads 5.32.
`C/C(O)=C/C(=O)[O-]` registered a pKa (acidic group) of 13.2.
As to `O=P([O-])(O)C([NH2+]Cc1cccnc1)c1ccccc1O` (stereo not given), the pKa is, setting by setting: (acidic group) 5.15; (basic group) 3.14.
For the setting “acidic group”, `Cc1ccc(S(=O)(=O)N(CCNCC(=O)[O-])CC(=O)[O-])cc1` returned a pKa of 7.83.
As to `O=[N+]([O-])c1ccc(-c2cnc(-c3ccccc3)o2)cc1`, under “basic group”, the pKa was determined as 0.35.
Where the note is “basic group”, `CN(CCCN)CCCN` yielded a pKa of 10.4.
The compound `O=C([O-])[C@@H]1O[C@H](Oc2ccc3cccnc3c2)[C@@H](O)[C@H](O)[C@H]1O` returned a pKa (basic group) of 5.32.
With `CCCNN`, the pKa (basic group) came to 7.92.
As for `CC#CC#CC=C=C[C@@H](O)CCC(=O)O`, under “acidic group”, the pKa is 4.9.
In the case of `Clc1cc2cccnc2c2ncccc12`, the pKa (basic group) was 4.22.
Turning to `COc1cc(C(N)=O)ccc1-c1nc2nn(C)cc2[nH]1`, the pKa runs as follows: (acidic group) 12.3; (basic group) 3.98.
As to `Cc1nn(-c2ccccc2)c(O)c1-c1ccccc1`, the pKa (acidic group) is 11.9.
Same read-out and setting: in the case of `Cc1cc(S(=O)(=O)Nc2nccs2)ccc1N` it was 7.
On to `CNNC1CC[NH+](C(C)C)CC1`, for which, under “basic group”, the pKa was determined as 6.2.
For `CC(C)CNCC(=O)c1ccc(O)cc1`, the pKa (basic group) was 7.74.
Consider `O=C(O)[C@H]1C[C@@H]2CC[C@H]1C2`, for which, where the note is “acidic group”, the pKa was 5.02.
For `N#CCN1CCOCC1`, the pKa (basic group) came to 2.
As for `CCC(C)(C)Nc1ccccc1`, the pKa (basic group) is 6.55.
`CC[NH+](CC)CCCCC(C)Nc1c2ccc(Cl)cc2nc2ccc(OC)cc12` (stereo not given): the pKa (basic group) came out at 7.74.
Where the note is “basic group”, `[O-]c1ccc(Cl)cc1CN1CCCCC1` registered a pKa of 11.8.
Turning to `Nc1ccc2nc3ccccc3cc2c1`, the pKa (basic group) was 5.88.
For the compound `CC(=O)[C@H]1C[C@@H](CC(=O)O)C1(C)C`, the pKa (acidic group) stood at 4.82.
Take `c1cncc(-c2ccc[nH+]c2)c1`: the pKa (basic group) worked out at 3.
`CCc1ccc(C(=O)[O-])nc1` gave a pKa (basic group) of 5.86.
For `C[n+]1ccccc1/C=C/c1ccc(O)cc1`, the pKa (acidic group) worked out at 8.4.
Regarding `NCc1ccc(C(=O)[O-])cc1`, the pKa (basic group) was determined as 9.64.
As to `Nc1ccc(Cl)c2ccccc12`, the pKa (basic group) came out at 3.4.
On to `Oc1nccc[nH+]1`, for which, where the note is “acidic group”, the pKa was found to be 2.24.
`C[NH+]1[C@H]2CC=C(C(=O)O)[C@@H]1CC2` showed a pKa (acidic group) of 3.93.
Under “basic group”, `CN1CCC2Cc3ccc(O)c(O)c3C3CCCC1C23` (stereo not given) registered a pKa of 7.58.
`C/C(=N\O)C(=O)[N-]O` showed a pKa (acidic group) of 11.
On to `OC1C=CC=CC=C1`, for which the pKa (basic group) was -7.
Where the note is “basic group”, `Cc1ccccc1NC(C)(C)C` yielded a pKa of 6.49.
`O=C([O-])CCCCCN1CCCCC1` showed a pKa (basic group) of 10.5.
`Nc1ccc(S(=O)(=O)Nc2cccc[nH+]2)cc1` came in with a pKa (basic group) of 1.
In turn, `c1cncc(-c2nc3ccccc3[nH]2)c1` returned a pKa (acidic group) of 11.2 and a pKa (basic group) of 4.53.
Consider `Cc1ccnc2ccccc12`, for which, where the note is “basic group”, the pKa was 5.51.
Turning to `CNC(C)C(=O)[O-]` (stereo not given), the pKa (basic group) turned out to be 10.2.
Take `CN1CC=CCN1C`: the pKa (basic group) stood at 5.7.
Still for that read-out and setting: in the case of `CCN(CC)N(CC)CC` it was 7.31; in that of `O=[N+](O)C1=CC=CC1`, 3.25; in that of `CNOC`, 4.75.
`CC(=O)Nc1ccc2cc3ccccc3nc2c1`: where the note is “basic group”, the pKa came to 5.6.
For the compound `COCCc1nc(C)c[nH]1`, for the setting “basic group”, the pKa was 8.13.
For the compound `COc1cc2c(cc1OC)NCC2`, the pKa (basic group) worked out at 7.3.
Where the note is “acidic group”, `CSC(=O)C1c2ccccc2-c2ccccc21` registered a pKa of 10.5.
For the compound `O=C(O)[C@@H]1CC[C@H](C(=O)[O-])[Se]1`, the pKa (acidic group) stood at 4.55.
The compound `O=CC1CCCCC1=O` (stereo not given) came in with a pKa (acidic group) of 6.35.
Compound `FC(F)(F)c1cc(-c2ccccc2)nnc1NCC[NH+]1CCOCC1` registered a pKa (basic group) of 1.44.
In turn, `CNc1ccc[n+](O)c1` yielded a pKa (basic group) of -2.42.
Compound `COc1ccc2nccc(N)c2c1` gave a pKa (basic group) of 8.94.
`O=[N+]([O-])c1ccc(O)c(C[NH+]2CCOCCOCCOCCOCCOCC2)c1` yielded a pKa (acidic group) of 5.77.
`c1ccc2c(c1)N1CCN2CC1` yielded a pKa (basic group) of 5.65.
`COc1ccc(CN)c([N+](=O)[O-])c1` returned a pKa (basic group) of 8.77.
For the setting “acidic group”, `[S-]c1nc(S)c2[nH]cnc2n1` returned a pKa of 9.97.
For `CN(C)CCc1ccc(O)cc1`, the pKa (basic group) was 9.8.
In the case of `Nc1ccc(Oc2ccc(N)cc2)cc1`, the pKa (basic group) was found to be 5.18.
Where the note is “basic group”, `COc1nc2ccccc2[nH]1` displayed a pKa of 3.75.
Compound `NCCCCCCCCCCC(=O)[O-]` yielded a pKa (basic group) of 11.
As for `O=C([O-])CN(CC(=O)[O-])Cc1cc([N+](=O)[O-])ccc1[O-]`, for the setting “basic group”, the pKa was determined as 10.2.
As for `Cc1cc(=O)oc2cc(O)c(Cl)cc12`, the pKa (acidic group) was determined as 6.1.
Take `CCOc1cccc[n+]1O`: the pKa (acidic group) was determined as 1.18.
As for `NC(=O)C[C@H](N)C(N)=O`, the pKa (acidic group) came out at 7.
For the setting “acidic group”, `[NH3+]CCc1nnn[nH]1` gave a pKa of 3.99.
Compound `[O-]c1[nH+]cnc2nc[nH]c12` returned a pKa (basic group) of 1.99.
In the case of `O=[N+]([O-])c1ccc([O-])c(O)c1`, the pKa (acidic group) came out at 10.9.
Compound `Nc1ccc2cn[nH]c2c1` displayed a pKa (acidic group) of 14.3.
For `[O-]/N=C1\CCCC\C1=N/O`, the pKa (acidic group) is 12.6.
For the compound `CCCc1ccccn1`, the pKa (basic group) was 5.97.
In turn, `C#C[C@]1(O)C[C@@H](C)N(C)[C@@H]2CCCC[C@H]21` registered a pKa (basic group) of 9.53.
`Cc1ccccc1/C(=N/CCCN(C)C)c1ccccc1`: for the setting “basic group”, the pKa came out at 9.
`CCCc1c(O)n2c3cc(C)ccc3nc(N(C)C)n2c1=O`: the pKa (acidic group) was determined as 6.55.
The compound `CC(Cc1ccccc1)NCCC#N` (stereo not given) displayed a pKa (basic group) of 7.23.
Regarding `O=C(O)C1=C(CO)CCC1`, the pKa (acidic group) is 4.54.
As to `Cc1ccc(NC(=S)c2ccc(Cl)cc2)cc1`, the pKa (acidic group) came to 11.2.
With `C=C(C)C(=O)O`, the pKa (acidic group) turned out to be 4.66.

For the origin of these results see the pKa sets of Baltruschat and Czodrowski (2020).
